From paper PMC4127532 (Journal of Medicinal Chemistry, 2014)
“Also recorded” adds a separate entry of the source.

Experiments:
[1] = molecular target: A/England/195/2009 (H1N1), M2/S31 (Influenza A virus, UniProt C3W5Z0, N31S); format: cell-based
[2] = molecular target: S31N M2 transmembrane domain (residues 22–46) (Influenza A virus, UniProt P0DOF5, S31N); format: binding, influenza A (A/Udorn/307/72)
[3] = system: A/Victoria/3/75 (H3N2, M2 WT); experiment: microbe, parasite or virus in culture; format: cell-based, influenza A

Row | Compound | block of inward proton currents (in words) [1] | decrease of tilt angle of the entire TMD helix [2] | helix tilt of S31N M2 TMD with drug [2] | EC50 ± SE [3] | EC50 ([3]; Influenza A virus, H3N2, MDCK)
1 | CCCC1(N)C2CC3CC(C2)CC1C3 (stereo not shown) [Compound 6, 2-n-Propyltricyclo[3.3.1.1^3,7]decan-2-amine] | well blocked | 3 ° | ~33 ° |  | 
2 | NC1C2CC3CC(C2)CC1C3 (stereo not shown) [Compound 3] | well blocked |  |  |  | 
3 | NC12CC3CC(CC(C3)C1)C2 [Compound 1, amantadine] | well blocked |  |  | no detectable activity; also recorded: inactive | 3000 ± 500 nM
